“And” between values parts separate entries of the source, which are not always exact repeats. Equal values may be shown once.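 How tested: cells in 96-well plates exposed to compound for 48 hours at five concentrations. At the GI50, growth is halved. Definition used: TGI = concentration required for complete inhibition of growth.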
Key:
Assay in all cases: DTP human tumour cell line panel, 48 h
[1] = tested on: HS 578T breast
[2] = tested on: NCI-H226 lung
[3] = tested on: MDA-MB-231 breast
[4] = tested on: EKVX NSCLC
[5] = tested on: MALME-3M melanoma
[6] = tested on: SK-MEL-5 melanoma
[7] = tested on: OVCAR-8 ovarian
[8] = tested on: SK-MEL-28 melanoma
[9] = tested on: NCI-H522 lung
[10] = tested on: HOP-92 NSCLC

Row | SMILES | GI50 [1] | TGI [1] | GI50 [2] | TGI [2] [µM] | GI50 [3] | TGI [3] | GI50 [4] | TGI [4] | GI50 [5] | TGI [5] | GI50 [6] | TGI [6] | GI50 [7] | TGI [7] | GI50 [8] | TGI [8] | GI50 [9] | TGI [9] | GI50 [10] | TGI [10]
1 | Cc1cnc2oc3ccc(O)cc3c2c1-c1ccccc1 | 19.6 µM | 74.4 µM | 9.35 µM | 44.2 | 3.54 µM | > 100 µM | 13.8 µM | 65.5 µM | 32.5 µM | > 100 µM | 35.8 µM | > 100 µM | 99 µM | > 100 µM | > 100 µM | > 100 µM | 44.9 µM | > 100 µM | 3.34 µM | 38.5 µM
2 | O=C(c1ccccc1Cl)n1oc2ccccc2c1=O | – | > 100 µM | – | > 100 | – | > 100 µM | – | > 100 µM | – | > 100 µM | – | > 100 µM | – | > 100 µM | – | > 100 µM | – | > 100 µM | – | > 100 µM
3 | Oc1ccc2c3c1OC1c4[nH]ncc4C[C@H]4[C@@H](C2)N(CC2CC2)CC[C@]314 (stereo partly drawn) | – | > 100 µM | – | > 100 | – | > 100 µM | – | > 100 µM | – | > 100 µM | – | > 100 µM | – | > 100 µM | – | > 100 µM | – | > 100 µM | – | > 100 µM
4 | Cn1c(=O)nc2n(-c3ccc(Cl)cc3)c3cc(Cl)ccc3nc-2c1=O | – | 5.59 µM | – | 42.5 | – | 6.91 µM | – | 17.7 µM | – | 3.44 µM | – | 3.07 µM | – | 6.2 µM | – | 7.19 µM | – | 6.36 µM | – | 18.5 µM
5 | NC(=S)N/N=C1\c2ccccc2-c2c(F)c(F)c(F)c(F)c21 | 6.25 µM | 39.5 µM | 13.1 µM | 28.9 | 4.21 µM | 10.7 µM | 25.4 µM | > 100 µM | 7.54 µM | 21.1 µM | 17.1 µM | > 50.4 µM | 1.84 µM | 3.68 µM | 2.99 µM | 8.87 µM | 0.321 µM | 1.21 µM | 6.33 µM | 19.9 µM
6 | COc1cc(/C=C2\CCC/C(=C\c3ccc(O)c(OC)c3)C2=O)ccc1O | 2.25 µM | 26.5 µM and 8.93 µM | – | 16.8 | 2.85 µM | 25.7 µM and 11.1 µM | 2.1 µM | 24.3 µM and 10.8 µM | 0.276 µM | 5.85 µM and 3.47 µM | 1.54 µM | 6.82 µM and 3.09 µM | 2.49 µM | 3.39 µM and 11.1 µM | 1.68 µM | 16.4 µM and 4.05 µM | 1.12 µM | 3.23 µM and 2.66 µM | – | 30.7 µM
7 | Clc1cc(Cl)c(OCCCCCCN2CCNCC2)c(Cl)c1 | 3.35 µM | 15.2 µM | 12.3 µM | 30.8 | 2.17 µM | 4.53 µM | 9.45 µM | 22.3 µM | 2.19 µM | 5.06 µM | 1.66 µM | 3.06 µM | 3.36 µM | 12.4 µM | 2.33 µM | 5.68 µM | 11.1 µM | 25.4 µM | 2.32 µM | 7.64 µM
8 | CCc1cnn2c(NCc3ccc[n+]([O-])c3)cc(N3CCCC[C@H]3CCO)nc12 | < 0.01 µM and 0.00236 µM | 0.00805 µM | < 0.0129 µM and 0.00689 µM | 0.0395 | < 0.01 µM and 0.0042 µM | > 100 µM | < 0.01 µM and 0.00902 µM | 0.138 µM and 0.0524 µM | < 0.0126 µM and 0.00754 µM | 0.0272 µM and 0.0324 µM | < 0.01 µM and 0.00469 µM | 0.0237 µM and 0.207 µM | < 0.01 µM and 0.00446 µM | > 100 µM | < 0.01 µM and 0.00493 µM | 0.0297 µM and 0.0713 µM | < 0.01 µM and 0.00219 µM | < 0.01 µM and 0.00549 µM | < 0.0142 µM and 0.00299 µM | < 0.0269 µM and 0.0145 µM
9 | C#CC(=O)Nc1cccc2c1cc(C)n2-c1nc2c(c(NCc3ccccc3)n1)CCCC2 | 0.353 µM | 3.07 µM | 0.25 µM | 0.644 | 0.0578 µM | 0.261 µM | 1.31 µM | 2.96 µM | 0.0547 µM | 0.195 µM | 0.0985 µM | 0.259 µM | 0.136 µM | 0.779 µM | 1.22 µM | 2.79 µM | 0.0174 µM | 0.0372 µM | 0.142 µM | 0.315 µM
10 | C/C(=N\OCC(O)CNCCSCc1ccccc1)c1ccccc1Cl (stereo not drawn) | – | 89.5 µM | – | 35.4 | – | 35 µM | – | 40.6 µM | – | 37.2 µM | – | 33.4 µM | – | 32 µM | – | 37.5 µM | – | 52.8 µM | – | 28.4 µM

— PubChem BioAssay (NCI)
